From PubChem BioAssay (NCI)
Where “and” joins values, the source holds several entries; their conditions need not be identical. Equal entries are not always repeated.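 All cell lines were grown in 96-well plates and treated with compound for 48 hours. At the GI50, growth is halved. TGI denotes the concentration required for complete inhibition of growth.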

Columns and labels:
Test in all cases: NCI tumour cell line growth inhibition, 48 h
IGROV1 ovarian = system: IGROV1 ovarian
MALME-3M melanoma = system: MALME-3M melanoma
MCF7 breast = system: MCF7 breast
OVCAR-3 ovarian = system: OVCAR-3 ovarian
OVCAR-4 ovarian = system: OVCAR-4 ovarian
OVCAR-5 ovarian = system: OVCAR-5 ovarian
SF-295 CNS = system: SF-295 CNS
SK-MEL-5 melanoma = system: SK-MEL-5 melanoma
SN12C renal = system: SN12C renal
U251 CNS = system: U251 CNS

Structure (SMILES): COc1cc2ncnc(Nc3ccc4c(cnn4Cc4ccccc4)c3)c2cc1OC
- GI50 (IGROV1 ovarian): 4.83 µM
- TGI (IGROV1 ovarian): > 25 µM
- GI50 (MALME-3M melanoma): > 25 µM
- TGI (MALME-3M melanoma): > 25 µM
- GI50 (MCF7 breast): > 25 µM
- TGI (MCF7 breast): > 25 µM
- GI50 (OVCAR-3 ovarian): 15.1 µM
- TGI (OVCAR-3 ovarian): > 25 µM
- GI50 (OVCAR-4 ovarian): > 25 µM
- TGI (OVCAR-4 ovarian): > 25 µM
- GI50 (OVCAR-5 ovarian): > 25 µM
- TGI (OVCAR-5 ovarian): > 25 µM
- GI50 (SF-295 CNS): > 20.2 µM
- TGI (SF-295 CNS): > 25 µM
- GI50 (SK-MEL-5 melanoma): > 17.5 µM
- TGI (SK-MEL-5 melanoma): > 25 µM
- GI50 (SN12C renal): > 17 µM
- TGI (SN12C renal): > 25 µM
- GI50 (U251 CNS): > 19.2 µM
- TGI (U251 CNS): > 25 µM

Structure (SMILES): C/C=C/[C@H]1O[C@@H]2C(=C[C@H]1O)C(=O)O[C@H]2C
- GI50 (IGROV1 ovarian): 17.1 µM
- TGI (IGROV1 ovarian): > 59.9 µM
- GI50 (MALME-3M melanoma): 7.59 µM
- TGI (MALME-3M melanoma): 24.2 µM
- GI50 (MCF7 breast): 31.2 µM
- TGI (MCF7 breast): 98 µM
- GI50 (OVCAR-3 ovarian): 18 µM
- TGI (OVCAR-3 ovarian): 39.2 µM
- GI50 (OVCAR-4 ovarian): 12.3 µM
- TGI (OVCAR-4 ovarian): 33.3 µM
- GI50 (OVCAR-5 ovarian): 23.2 µM
- TGI (OVCAR-5 ovarian): 45.8 µM
- GI50 (SF-295 CNS): > 82.1 µM
- TGI (SF-295 CNS): > 100 µM
- GI50 (SK-MEL-5 melanoma): 9.89 µM
- TGI (SK-MEL-5 melanoma): 23.3 µM
- GI50 (SN12C renal): 16.6 µM
- TGI (SN12C renal): 33.6 µM
- GI50 (U251 CNS): 18.4 µM
- TGI (U251 CNS): 36.8 µM

Structure (SMILES): CCOC(=O)c1oc2ccc([N+](=O)[O-])c3c2c1CCC3
- TGI (IGROV1 ovarian): > 100 µM
- TGI (MALME-3M melanoma): > 100 µM
- TGI (MCF7 breast): > 100 µM
- TGI (OVCAR-3 ovarian): > 100 µM
- TGI (OVCAR-4 ovarian): > 100 µM
- TGI (OVCAR-5 ovarian): > 100 µM
- TGI (SF-295 CNS): 53.9 µM
- TGI (SK-MEL-5 melanoma): > 100 µM
- TGI (SN12C renal): > 100 µM
- TGI (U251 CNS): 59.2 µM

Structure (SMILES): C[n+]1c(-c2ccc(/C=N/NC(=O)c3ccc(C(=O)N/N=C/c4ccc(-c5cn6ccccc6[n+]5C)cc4)cc3)cc2)cn2ccccc21
- GI50 (IGROV1 ovarian): > 1000 µM
- TGI (IGROV1 ovarian): > 1000 µM
- GI50 (MALME-3M melanoma): 208 µM
- TGI (MALME-3M melanoma): > 85.6 µM and 422 µM
- GI50 (MCF7 breast): 343 µM
- TGI (MCF7 breast): > 1000 µM
- GI50 (OVCAR-3 ovarian): > 1000 µM
- TGI (OVCAR-3 ovarian): > 1000 µM
- GI50 (OVCAR-4 ovarian): 623 µM
- TGI (OVCAR-4 ovarian): > 1000 µM
- GI50 (OVCAR-5 ovarian): > 1000 µM
- TGI (OVCAR-5 ovarian): > 1000 µM
- GI50 (SF-295 CNS): 290 µM
- TGI (SF-295 CNS): 944 µM
- GI50 (SK-MEL-5 melanoma): 155 µM
- TGI (SK-MEL-5 melanoma): > 94.9 µM and 634 µM
- GI50 (SN12C renal): 213 µM
- TGI (SN12C renal): 493 µM
- GI50 (U251 CNS): 197 µM
- TGI (U251 CNS): 347 µM

Structure (SMILES): O=C(O)CCc1c2ccc(=O)c(O)c-2oc2c(O)c(O)ccc12
- TGI (IGROV1 ovarian): > 100 µM
- TGI (MALME-3M melanoma): > 100 µM
- TGI (MCF7 breast): 29.3 µM
- TGI (OVCAR-3 ovarian): > 100 µM
- TGI (OVCAR-4 ovarian): > 100 µM
- TGI (OVCAR-5 ovarian): > 100 µM
- TGI (SF-295 CNS): 82.5 µM
- TGI (SK-MEL-5 melanoma): > 100 µM
- TGI (SN12C renal): 34.8 µM
- TGI (U251 CNS): > 100 µM

Structure (SMILES): CC(C)n1nc(-c2ccc3oc(N)nc3c2)c2c(N)ncnc21
- GI50 (IGROV1 ovarian): < 0.01 µM
- TGI (IGROV1 ovarian): 0.0554 µM and 0.277 µM
- GI50 (MALME-3M melanoma): < 0.01 µM
- TGI (MALME-3M melanoma): < 0.01 µM and 0.022 µM
- GI50 (MCF7 breast): < 0.01 µM
- TGI (MCF7 breast): 2.87 µM and 4.12 µM
- GI50 (OVCAR-3 ovarian): < 0.013 µM and 0.012 µM
- TGI (OVCAR-3 ovarian): 0.411 µM and 0.759 µM
- GI50 (OVCAR-4 ovarian): < 0.01 µM
- TGI (OVCAR-4 ovarian): 0.077 µM and 0.0569 µM
- GI50 (OVCAR-5 ovarian): 0.0132 µM and 0.0161 µM
- TGI (OVCAR-5 ovarian): 1.4 µM and 2.08 µM
- GI50 (SF-295 CNS): < 0.01 µM and 0.0102 µM
- TGI (SF-295 CNS): 0.0472 µM and 0.0773 µM
- GI50 (SK-MEL-5 melanoma): 0.0171 µM and < 0.0114 µM
- TGI (SK-MEL-5 melanoma): 0.143 µM and 0.0865 µM
- GI50 (SN12C renal): < 0.0114 µM and 0.0113 µM
- TGI (SN12C renal): 2.69 µM and 8.69 µM
- GI50 (U251 CNS): 0.0229 µM and 0.0255 µM
- TGI (U251 CNS): 10.2 µM and 2.44 µM

Structure (SMILES): COCCN1CCN(Cc2ccc(-c3n[nH]c4c3C(=O)c3c(NC(=O)NN5CCOCC5)cccc3-4)cc2)CC1
- GI50 (IGROV1 ovarian): 0.0226 µM
- TGI (IGROV1 ovarian): 1.19 µM
- GI50 (MALME-3M melanoma): 0.0705 µM
- GI50 (MCF7 breast): 0.00766 µM
- TGI (MCF7 breast): > 5.52 µM
- GI50 (OVCAR-3 ovarian): 0.0242 µM
- GI50 (OVCAR-4 ovarian): 0.0322 µM
- TGI (OVCAR-4 ovarian): 0.932 µM
- GI50 (OVCAR-5 ovarian): 0.0212 µM
- TGI (OVCAR-5 ovarian): > 4.7 µM
- GI50 (SF-295 CNS): 0.0345 µM
- TGI (SF-295 CNS): > 10 µM
- GI50 (SK-MEL-5 melanoma): 0.0269 µM
- GI50 (SN12C renal): 0.0307 µM
- TGI (SN12C renal): > 10 µM
- GI50 (U251 CNS): 0.0204 µM

Structure (SMILES): CN(C)CC(C(=O)Cc1ccccc1)c1ccccc1 (stereo unspecified)
- GI50 (IGROV1 ovarian): 11.6 µM
- TGI (IGROV1 ovarian): 26.4 µM
- GI50 (MALME-3M melanoma): 1.74 µM
- TGI (MALME-3M melanoma): 3.89 µM
- GI50 (MCF7 breast): 0.369 µM
- TGI (MCF7 breast): 1.67 µM
- GI50 (OVCAR-3 ovarian): 1.9 µM
- TGI (OVCAR-3 ovarian): 3.48 µM
- GI50 (OVCAR-4 ovarian): 2.35 µM
- TGI (OVCAR-4 ovarian): 5.87 µM
- GI50 (OVCAR-5 ovarian): 8.19 µM
- TGI (OVCAR-5 ovarian): 22.4 µM
- GI50 (SF-295 CNS): 11.3 µM
- TGI (SF-295 CNS): 27.8 µM
- GI50 (SK-MEL-5 melanoma): 11.6 µM
- TGI (SK-MEL-5 melanoma): 25.2 µM
- GI50 (SN12C renal): 3.04 µM
- TGI (SN12C renal): 11 µM
- GI50 (U251 CNS): 2.23 µM
- TGI (U251 CNS): 5.02 µM

Structure (SMILES): N=C(N)c1ccc(NCCOCCNc2ccc(C(=N)N)cc2)cc1
- GI50 (IGROV1 ovarian): 60.5 µM
- TGI (IGROV1 ovarian): > 100 µM
- GI50 (MALME-3M melanoma): 29.7 µM
- TGI (MALME-3M melanoma): 87 µM
- GI50 (MCF7 breast): 16 µM
- TGI (MCF7 breast): > 100 µM
- GI50 (OVCAR-3 ovarian): 69.1 µM
- TGI (OVCAR-3 ovarian): > 100 µM
- GI50 (OVCAR-4 ovarian): 34.1 µM
- TGI (OVCAR-4 ovarian): > 100 µM
- GI50 (OVCAR-5 ovarian): > 100 µM
- TGI (OVCAR-5 ovarian): > 100 µM
- GI50 (SF-295 CNS): 43.3 µM
- TGI (SF-295 CNS): > 100 µM
- GI50 (SK-MEL-5 melanoma): 25.5 µM
- TGI (SK-MEL-5 melanoma): 89.4 µM
- GI50 (SN12C renal): 4.28 µM
- TGI (SN12C renal): > 100 µM
- GI50 (U251 CNS): 35.9 µM
- TGI (U251 CNS): > 100 µM

Structure (SMILES): C/C(=N\NC(=S)N1CCCCCCCCCCCC1)c1ccccn1
- TGI (IGROV1 ovarian): 1.35 µM
- TGI (MALME-3M melanoma): 1.08 µM
- TGI (MCF7 breast): 0.674 µM
- TGI (OVCAR-3 ovarian): 1.48 µM
- TGI (OVCAR-4 ovarian): 1.51 µM
- TGI (OVCAR-5 ovarian): 2.2 µM
- TGI (SF-295 CNS): 1.01 µM
- TGI (SK-MEL-5 melanoma): 0.636 µM
- TGI (SN12C renal): 2.19 µM
- TGI (U251 CNS): 0.28 µM

Structure (SMILES): Oc1cccc(/C=N/Nc2nnc(N/N=C/c3cccc(O)c3)c3ccccc23)c1
- TGI (IGROV1 ovarian): 47.7 µM
- TGI (MALME-3M melanoma): 57.3 µM
- TGI (MCF7 breast): > 100 µM
- TGI (OVCAR-3 ovarian): 35.8 µM
- TGI (OVCAR-4 ovarian): 82.6 µM
- TGI (OVCAR-5 ovarian): > 100 µM
- TGI (SF-295 CNS): 31.8 µM
- TGI (SK-MEL-5 melanoma): 8.86 µM
- TGI (SN12C renal): 30.5 µM
- TGI (U251 CNS): 29.6 µM

Structure (SMILES): C/C(=N\N=C(\[Se])N(C)C)c1ccccn1
- TGI (IGROV1 ovarian): 10.1 µM
- TGI (MALME-3M melanoma): 9.35 µM
- TGI (MCF7 breast): 8.15 µM
- TGI (OVCAR-3 ovarian): 11.8 µM
- TGI (OVCAR-4 ovarian): 13.9 µM
- TGI (OVCAR-5 ovarian): 7.31 µM
- TGI (SF-295 CNS): 12 µM
- TGI (SK-MEL-5 melanoma): 1.75 µM
- TGI (SN12C renal): 14.9 µM
- TGI (U251 CNS): 8.65 µM

Structure (SMILES): Nc1nc(N)c2c(n1)NC(c1ccccc1)C1CCc3ccccc3C1=N2 (stereo unspecified)
- GI50 (IGROV1 ovarian): 4.45 µM
- TGI (IGROV1 ovarian): 19.4 µM
- GI50 (MALME-3M melanoma): 2.13 µM
- TGI (MALME-3M melanoma): 17.9 µM
- GI50 (MCF7 breast): 3.25 µM
- TGI (MCF7 breast): 13.5 µM
- GI50 (OVCAR-3 ovarian): 3.48 µM
- TGI (OVCAR-3 ovarian): 15.4 µM
- GI50 (OVCAR-4 ovarian): 3.06 µM
- TGI (OVCAR-4 ovarian): 17.1 µM
- GI50 (OVCAR-5 ovarian): 14.2 µM
- TGI (OVCAR-5 ovarian): 28 µM
- GI50 (SF-295 CNS): 1.69 µM
- TGI (SF-295 CNS): 8.12 µM
- GI50 (SK-MEL-5 melanoma): 0.638 µM
- TGI (SK-MEL-5 melanoma): 2.25 µM
- GI50 (SN12C renal): 7.33 µM
- TGI (SN12C renal): 21.3 µM
- GI50 (U251 CNS): 4.65 µM
- TGI (U251 CNS): 17.4 µM
